Converted amounts (≈) assume the structure as drawn.
How the values were obtained:
Staphylococcus aureus [1] = assay: Antibacterial activity against wild-type norA expressing Staphylococcus aureus SA-1199 by microdilution technique; assay type: functional
Escherichia coli = assay: Antibacterial activity against Escherichia coli ATCC 25922 by microdilution technique; assay type: functional
Staphylococcus aureus [2] = assay: Antibacterial activity against Staphylococcus aureus ATCC 25923 by microdilution technique; assay type: functional
Staphylococcus aureus [3] = assay: Antibacterial activity against Staphylococcus aureus SA-K1904 bearing norA++ efficient mutation by microdilution technique; assay type: functional
Staphylococcus aureus [4] = assay: Antibacterial activity against methicillin and ciprofloxacin-resistant Staphylococcus aureus 25A by microdilution technique; assay type: functional
Staphylococcus aureus [5] = assay: Antibacterial activity against Staphylococcus aureus SA-K1902 bearing norA- deficient mutation by microdilution technique; assay type: functional
Staphylococcus aureus [6] = assay: Antibacterial activity against Staphylococcus aureus SA-1199B norA++ and A116E GrlA mutation by microdilution technique; assay type: functional
Staphylococcus aureus [7] = assay: Antibacterial activity against Staphylococcus aureus SA-1199B by EtBr efflux assay; assay type: functional
[8] = biological target: T1, Quinolone resistance protein NorA (Staphylococcus aureus) (UniProt P0A0J7); assay: Inhibition of NorA in Staphylococcus aureus SA-1199B assessed as reduction in ethidium bromide efflux at 50 uM by fluorimetry; set-up: scale not given: the % may be the effect or the level left
T1 sequence (whole entry): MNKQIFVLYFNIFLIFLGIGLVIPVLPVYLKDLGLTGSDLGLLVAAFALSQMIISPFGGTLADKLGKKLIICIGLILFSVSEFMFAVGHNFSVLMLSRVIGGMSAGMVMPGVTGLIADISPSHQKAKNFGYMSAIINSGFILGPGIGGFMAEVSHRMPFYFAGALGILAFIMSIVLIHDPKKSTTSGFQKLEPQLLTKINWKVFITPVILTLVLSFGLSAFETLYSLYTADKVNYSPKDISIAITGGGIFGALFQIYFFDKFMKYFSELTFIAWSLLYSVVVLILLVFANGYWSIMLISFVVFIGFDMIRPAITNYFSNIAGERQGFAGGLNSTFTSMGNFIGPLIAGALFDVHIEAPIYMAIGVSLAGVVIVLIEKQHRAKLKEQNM

Staphylococcus aureus [9] = assay: Antibacterial activity against Staphylococcus aureus K1305 bearing wild-type GyrA and E84K mutant GrlA by microdilution technique; assay type: functional
Staphylococcus aureus [10] = assay: Antibacterial activity against Staphylococcus aureus K1035 bearing wild-type GyrA and S80F mutant GrlA by microdilution technique; assay type: functional
Staphylococcus aureus [11] = assay: Antibacterial activity against Staphylococcus aureus K1628 bearing S84L mutant GyrA and S80F mutant GrlA by microdilution technique; assay type: functional
Staphylococcus aureus [12] = assay: Antibacterial activity against Staphylococcus aureus K1134 bearing wild-type GyrA and S80Y mutant GrlA by microdilution technique; assay type: functional
Staphylococcus aureus [13] = assay: Antibacterial activity against Staphylococcus aureus K1640 bearing S84L mutant GyrA and S80Y mutant GrlA by microdilution technique; assay type: functional

Cc1c(N2CCC3=C(C2)C(O)CCS3)c(N)cc2c(=O)c(C(=O)O)cn(C3CC3)c12 (configuration not stated)
MIC (Staphylococcus aureus [1]): > 100 µg/mL | MIC (Escherichia coli): > 128 µg/mL | MIC (Staphylococcus aureus [2]): > 128 µg/mL | MIC (Staphylococcus aureus [3]): > 100 µg/mL | MIC (Staphylococcus aureus [4]): > 128 µg/mL | MIC (Staphylococcus aureus [5]): > 100 µg/mL | MIC (Staphylococcus aureus [6]): > 100 µg/mL

CO/N=C1\CCSC2=C1CN(c1cc3c(cc1N)c(=O)c(C(=O)O)cn3C1CC1)CC2
MIC (Staphylococcus aureus [1]): 3.13 µg/mL (≈ 7.11 µM) | MIC (Escherichia coli): 16 µg/mL (≈ 36.3 µM) | MIC (Staphylococcus aureus [2]): 2 µg/mL (≈ 4.54 µM) | MIC (Staphylococcus aureus [3]): 3.13 µg/mL (≈ 7.11 µM) | MIC (Staphylococcus aureus [4]): 8 µg/mL (≈ 18.2 µM) | MIC (Staphylococcus aureus [5]): 1.56 µg/mL (≈ 3.54 µM) | MIC (Staphylococcus aureus [6]): 12.5 µg/mL (≈ 28.4 µM)

CO/N=C1/C2=C(CCN(c3cc4c(cc3N)c(=O)c(C(=O)O)cn4C3CC3)C2)SCC1C (configuration not stated)
MIC (Staphylococcus aureus [1]): 6.25 µg/mL (≈ 13.7 µM) | MIC (Escherichia coli): 128 µg/mL (≈ 282 µM) | MIC (Staphylococcus aureus [2]): 4 µg/mL (≈ 8.8 µM) | MIC (Staphylococcus aureus [3]): 3.13 µg/mL (≈ 6.89 µM) | MIC (Staphylococcus aureus [4]): 4 µg/mL (≈ 8.8 µM) | MIC (Staphylococcus aureus [5]): 3.13 µg/mL (≈ 6.89 µM) | MIC (Staphylococcus aureus [6]): 6.25 µg/mL (≈ 13.7 µM)

CCOC(=O)c1cn(C2CC2)c2cc(N3CCC4=C(C3)C(=O)C(C)CS4)c(N)cc2c1=O (configuration not stated)
MIC (Staphylococcus aureus [7]): > 100 µg/mL | Activity [8]: 63.5%

Nc1cc2c(=O)c(C(=O)O)cn(C3CC3)c2cc1N1CCC2=C(C1)C(=O)CCS2
MIC (Staphylococcus aureus [1]): 1.56 µg/mL (≈ 3.79 µM) | MIC (Escherichia coli): 128 µg/mL (≈ 311 µM) | MIC (Staphylococcus aureus [2]): 6.25 µg/mL (≈ 15.2 µM) | MIC (Staphylococcus aureus [3]): 6.25 µg/mL (≈ 15.2 µM) | MIC (Staphylococcus aureus [4]): > 128 µg/mL | MIC (Staphylococcus aureus [5]): 3.13 µg/mL (≈ 7.61 µM) | MIC (Staphylococcus aureus [6]): 25 µg/mL (≈ 60.8 µM)

Nc1cc2c(=O)c(C(=O)O)cn(C3CC3)c2cc1N1CCC2=C(C1)/C(=N/O)CCS2
MIC (Staphylococcus aureus [1]): 1.56 µg/mL (≈ 3.66 µM) | MIC (Escherichia coli): 2 µg/mL (≈ 4.69 µM) | MIC (Staphylococcus aureus [2]): 2 µg/mL (≈ 4.69 µM) | MIC (Staphylococcus aureus [3]): 6.25 µg/mL (≈ 14.7 µM) | MIC (Staphylococcus aureus [4]): 16 µg/mL (≈ 37.5 µM) | MIC (Staphylococcus aureus [5]): 1.56 µg/mL (≈ 3.66 µM) | MIC (Staphylococcus aureus [6]): 12.5 µg/mL (≈ 29.3 µM)

O=C(O)c1cn(C2CC2)c2cc(N3CCC4=C(C3)/C(=N/O)CCS4)c(F)cc2c1=O
MIC (Staphylococcus aureus [1]): 0.63 µg/mL (≈ 1.47 µM) | MIC (Escherichia coli): 1 µg/mL (≈ 2.33 µM) | MIC (Staphylococcus aureus [2]): 2 µg/mL (≈ 4.66 µM) | MIC (Staphylococcus aureus [3]): 0.63 µg/mL (≈ 1.47 µM) | MIC (Staphylococcus aureus [4]): 2 µg/mL (≈ 4.66 µM) | MIC (Staphylococcus aureus [5]): 0.63 µg/mL (≈ 1.47 µM) | MIC (Staphylococcus aureus [6]): 2.5 µg/mL (≈ 5.82 µM)

CO/N=C1\CCSC2=C1CN(c1c(N)cc3c(=O)c(C(=O)O)cn(C4CC4)c3c1C)CC2
MIC (Staphylococcus aureus [9]): 1.25 µg/mL (≈ 2.75 µM) | MIC (Staphylococcus aureus [10]): 1.25 µg/mL (≈ 2.75 µM) | MIC (Staphylococcus aureus [11]): > 10 µg/mL | MIC (Staphylococcus aureus [12]): 2.5 µg/mL (≈ 5.5 µM) | MIC (Staphylococcus aureus [1]): 0.31 µg/mL (≈ 0.682 µM) | MIC (Escherichia coli): 16 µg/mL (≈ 35.2 µM) | MIC (Staphylococcus aureus [2]): 0.16 µg/mL (≈ 0.352 µM) | MIC (Staphylococcus aureus [3]): 0.31 µg/mL (≈ 0.682 µM) | MIC (Staphylococcus aureus [4]): 32 µg/mL (≈ 70.4 µM) | MIC (Staphylococcus aureus [5]): 0.31 µg/mL (≈ 0.682 µM) | MIC (Staphylococcus aureus [6]): 0.31 µg/mL (≈ 0.682 µM) | MIC (Staphylococcus aureus [13]): > 10 µg/mL

O=C(O)c1cn(C2CC2)c2cc(N3CCC4=C(C3)C(O)CCS4)c(F)cc2c1=O (configuration not stated)
MIC (Staphylococcus aureus [9]): 0.63 µg/mL (≈ 1.51 µM) | MIC (Staphylococcus aureus [10]): 0.63 µg/mL (≈ 1.51 µM) | MIC (Staphylococcus aureus [11]): > 10 µg/mL | MIC (Staphylococcus aureus [12]): 1.25 µg/mL (≈ 3 µM) | MIC (Staphylococcus aureus [1]): 0.04 µg/mL (≈ 0.096 µM) | MIC (Escherichia coli): 64 µg/mL (≈ 154 µM) | MIC (Staphylococcus aureus [2]): 0.08 µg/mL (≈ 0.192 µM) | MIC (Staphylococcus aureus [3]): 0.16 µg/mL (≈ 0.384 µM) | MIC (Staphylococcus aureus [4]): 8 µg/mL (≈ 19.2 µM) | MIC (Staphylococcus aureus [5]): 0.04 µg/mL (≈ 0.096 µM) | MIC (Staphylococcus aureus [6]): 0.16 µg/mL (≈ 0.384 µM) | MIC (Staphylococcus aureus [13]): > 10 µg/mL

Cc1c(N2CCC3=C(C2)/C(=N/O)C(C)CS3)c(N)cc2c(=O)c(C(=O)O)cn(C3CC3)c12 (configuration not stated)
MIC (Staphylococcus aureus [1]): 0.31 µg/mL (≈ 0.682 µM) | MIC (Escherichia coli): 0.5 µg/mL (≈ 1.1 µM) | MIC (Staphylococcus aureus [2]): 0.16 µg/mL (≈ 0.352 µM) | MIC (Staphylococcus aureus [3]): 0.31 µg/mL (≈ 0.682 µM) | MIC (Staphylococcus aureus [4]): 8 µg/mL (≈ 17.6 µM) | MIC (Staphylococcus aureus [5]): 0.31 µg/mL (≈ 0.682 µM) | MIC (Staphylococcus aureus [6]): 1.25 µg/mL (≈ 2.75 µM)

O=C1CCSC2=C1CN(c1cc3c(cc1F)c(=O)c(C(=O)O)cn3C1CC1)CC2
MIC (Staphylococcus aureus [1]): 1.56 µg/mL (≈ 3.76 µM) | MIC (Escherichia coli): 8 µg/mL (≈ 19.3 µM) | MIC (Staphylococcus aureus [2]): 0.08 µg/mL (≈ 0.193 µM) | MIC (Staphylococcus aureus [3]): 0.63 µg/mL (≈ 1.52 µM) | MIC (Staphylococcus aureus [4]): > 128 µg/mL | MIC (Staphylococcus aureus [5]): 0.31 µg/mL (≈ 0.748 µM) | MIC (Staphylococcus aureus [6]): 3.13 µg/mL (≈ 7.55 µM)

Cc1c(N2CCc3ccccc3C2)c(N)cc2c(=O)c(C(=O)O)cn(C3CC3)c12
MIC (Staphylococcus aureus [9]): ≤ 0.02 µg/mL | MIC (Staphylococcus aureus [10]): ≤ 0.02 µg/mL | MIC (Staphylococcus aureus [11]): 1.25 µg/mL (≈ 3.21 µM) | MIC (Staphylococcus aureus [12]): ≤ 0.02 µg/mL | MIC (Staphylococcus aureus [1]): ≤ 0.02 µg/mL | MIC (Escherichia coli): ≤ 0.12 µg/mL | MIC (Staphylococcus aureus [2]): ≤ 0.12 µg/mL | MIC (Staphylococcus aureus [3]): ≤ 0.02 µg/mL | MIC (Staphylococcus aureus [4]): ≤ 0.12 µg/mL | MIC (Staphylococcus aureus [5]): ≤ 0.02 µg/mL | MIC (Staphylococcus aureus [6]): ≤ 0.02 µg/mL | MIC (Staphylococcus aureus [13]): 0.63 µg/mL (≈ 1.62 µM)

CO/N=C1/C2=C(CCN(c3c(N)cc4c(=O)c(C(=O)O)cn(C5CC5)c4c3C)C2)SCC1C (configuration not stated)
MIC (Staphylococcus aureus [1]): 3.13 µg/mL (≈ 6.68 µM) | MIC (Escherichia coli): 8 µg/mL (≈ 17.1 µM) | MIC (Staphylococcus aureus [2]): 16 µg/mL (≈ 34.1 µM) | MIC (Staphylococcus aureus [3]): 6.25 µg/mL (≈ 13.3 µM) | MIC (Staphylococcus aureus [4]): 8 µg/mL (≈ 17.1 µM) | MIC (Staphylococcus aureus [5]): 6.25 µg/mL (≈ 13.3 µM) | MIC (Staphylococcus aureus [6]): 3.13 µg/mL (≈ 6.68 µM)

CC1CSC2=C(CN(c3cc4c(cc3N)c(=O)c(C(=O)O)cn4C3CC3)CC2)/C1=N/O (configuration not stated)
MIC (Staphylococcus aureus [1]): 1.56 µg/mL (≈ 3.54 µM) | MIC (Escherichia coli): 32 µg/mL (≈ 72.6 µM) | MIC (Staphylococcus aureus [2]): 6.25 µg/mL (≈ 14.2 µM) | MIC (Staphylococcus aureus [3]): 3.13 µg/mL (≈ 7.11 µM) | MIC (Staphylococcus aureus [4]): 32 µg/mL (≈ 72.6 µM) | MIC (Staphylococcus aureus [5]): 1.56 µg/mL (≈ 3.54 µM) | MIC (Staphylococcus aureus [6]): 6.25 µg/mL (≈ 14.2 µM)

CCOC(=O)c1cn(C2CC2)c2cc(N3CCC4=C(C3)C(O)CCS4)c(N)cc2c1=O (configuration not stated)
MIC (Staphylococcus aureus [7]): > 100 µg/mL | Activity [8]: 26.3%

Nc1cc2c(=O)c(C(=O)O)cn(C3CC3)c2cc1N1CCC2=C(C1)C(O)CCS2 (configuration not stated)
MIC (Staphylococcus aureus [1]): 25 µg/mL (≈ 60.5 µM) | MIC (Escherichia coli): 128 µg/mL (≈ 310 µM) | MIC (Staphylococcus aureus [2]): 16 µg/mL (≈ 38.7 µM) | MIC (Staphylococcus aureus [3]): 25 µg/mL (≈ 60.5 µM) | MIC (Staphylococcus aureus [4]): 128 µg/mL (≈ 310 µM) | MIC (Staphylococcus aureus [5]): 12.5 µg/mL (≈ 30.2 µM) | MIC (Staphylococcus aureus [6]): > 100 µg/mL
